Measurements published in PubChem BioAssay AID248 (DTP/NCI, 2004).
Where “and” joins values, the source holds several entries; their conditions need not be identical. Equal values may be shown once. Toxic doses and inconclusive results are not listed. No stated cut-off is given here; in the data, active means T/C of 150% or more; inactive means T/C below 125%.

Test system: L1210 leukemia ip in BDF1 mice, survival T/C
Assay: NCI In Vivo Anticancer Drug Screen. Data for tumor model L1210 Leukemia (intraperitoneal) in B6D2F1 (BDF1) mice
Conditions: endpoint: mean survival time, higher = longer survival
How it was run: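 Transplanted-tumor mice were given test agent; controls received vehicle only. Survival readings from the two groups were divided (treated over control).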

[1] = dose: 100.0 mg/kg/injection, schedule: Q01DX001 (ip), vehicle: other
[2] = dose: 200.0 mg/kg/injection, schedule: Q01DX001 (ip), vehicle: other
[3] = dose: 100.0 mg/kg/injection, schedule: Q04DX003 (ip), vehicle: saline
[4] = dose: 200.0 mg/kg/injection, schedule: Q04DX003 (ip), vehicle: saline
[5] = dose: 400.0 mg/kg/injection, schedule: Q04DX003 (ip), vehicle: saline
[6] = dose: 25.0 mg/kg/injection, schedule: Q04DX002 (ip), vehicle: Klucel (hydroxypropylcellulose) (HPC)
[7] = dose: 50.0 mg/kg/injection, schedule: Q04DX002 (ip), vehicle: Klucel (hydroxypropylcellulose) (HPC)
[8] = dose: 100.0 mg/kg/injection, schedule: Q04DX002 (ip), vehicle: Klucel (hydroxypropylcellulose) (HPC)
[9] = dose: 100.0 mg/kg/injection, schedule: Q04DX003 (ip), vehicle: saline with Tween-80
[10] = dose: 200.0 mg/kg/injection, schedule: Q04DX002 (ip), vehicle: Klucel (hydroxypropylcellulose) (HPC)

Measured: T/C

O=C(NCCO)Nc1ccccc1Cl
inactive: dose: 100.0 mg/kg/injection, schedule: Q04DX002 (ip), vehicle: saline 103 % of control | dose: 200.0 mg/kg/injection, schedule: Q04DX002 (ip), vehicle: saline 100 % of control | dose: 400.0 mg/kg/injection, schedule: Q04DX002 (ip), vehicle: saline 100 % of control

Nc1ncnc2c1ncn2C(/C=N/Nc1ccccc1)OC(/C=N\Nc1ccccc1)CO (stereo not given)
inactive: [1] 106 % of control | [2] 108 % of control

C[N+]1(CCC(c2ccccc2)c2ccccc2)CCCCC1
inactive: dose: 12.5 mg/kg/injection, schedule: Q01DX009 (ip), vehicle: saline 97 % of control | dose: 25.0 mg/kg/injection, schedule: Q01DX009 (ip), vehicle: saline 96 % of control | dose: 50.0 mg/kg/injection, schedule: Q01DX009 (ip), vehicle: saline 96 % of control

CC(C)C(=O)NN
inactive: [3] 98 % of control | [4] 101 % of control | [5] 101 % of control

CC(C)CC(CC(C)C)C(=O)C1C2CCC(O2)C1C(=O)C(CC(C)C)CC(C)C (stereo not given)
inactive: dose: 6.25 mg/kg/injection, schedule: Q04DX002 (ip), vehicle: saline with Tween-80 94 % of control | dose: 12.5 mg/kg/injection, schedule: Q04DX002 (ip), vehicle: saline with Tween-80 94 % of control | dose: 25.0 mg/kg/injection, schedule: Q04DX002 (ip), vehicle: saline with Tween-80 86 % of control

O=c1oc2ccc([N+](=O)[O-])cc2o1
inactive: dose: 75.0 mg/kg/injection, schedule: Q01DX001 (ip), vehicle: acetone 108 % of control

CCOC(=O)C1CC2(Cl)C(Cl)=C(Cl)C1(Cl)C2(Cl)Cl (stereo not given)
inactive: dose: 100.0 mg/kg/injection, schedule: Q01DX001 (ip), vehicle: saline 98 % of control | [3] 94 % of control | dose: 200.0 mg/kg/injection, schedule: Q01DX001 (ip), vehicle: saline 93 % of control | [4] 94 % of control | dose: 400.0 mg/kg/injection, schedule: Q01DX001 (ip), vehicle: saline 98 % of control | [5] 93 % of control

Cc1ccc([N+](=O)[O-])cc1/C=C/C(=O)O
inactive: [3] 106 % of control | [4] 93 % of control | [5] 104 % of control

CC(CCC(CCC(C)CC(C)(C)C)CCC(C)CC(C)(C)C)CC(C)(C)C (stereo not given)
inactive: dose: 75.0 mg/kg/injection, schedule: Q01DX001 (ip), vehicle: saline with Tween-80 104 % of control | dose: 300.0 mg/kg/injection, schedule: Q01DX001 (ip), vehicle: saline with Tween-80 97 % of control

Nc1cc(S(=O)(=O)F)cc(Cl)c1O
inactive: dose: 100.0 mg/kg/injection, schedule: Q01DX009 (ip), vehicle: Klucel (hydroxypropylcellulose) (HPC) 105 % of control | dose: 200.0 mg/kg/injection, schedule: Q01DX009 (ip), vehicle: Klucel (hydroxypropylcellulose) (HPC) 103 % of control

Cc1cccc(-c2nc(N)nc(N)n2)c1C
inactive: dose: 50.0 mg/kg/injection, schedule: Q01DX009 (ip), vehicle: saline with Tween-80 97 % of control | dose: 100.0 mg/kg/injection, schedule: Q01DX009 (ip), vehicle: saline with Tween-80 101 % of control | dose: 200.0 mg/kg/injection, schedule: Q01DX009 (ip), vehicle: saline with Tween-80 101 % of control

O=C(O)c1nccc2ccccc12
inactive: [3] 96 % of control | [4] 112 % of control | [5] 90 % of control

CC(C)CCC1(CCBr)C(=O)NC(=Nc2ccccc2)NC1=O (stereo not given)
inactive: dose: 100.0 mg/kg/injection, schedule: Q01DX001 (ip), vehicle: carboxymethylcellulose (CMC) 96 % of control | dose: 200.0 mg/kg/injection, schedule: Q01DX001 (ip), vehicle: carboxymethylcellulose (CMC) 102 % of control | dose: 400.0 mg/kg/injection, schedule: Q01DX001 (ip), vehicle: carboxymethylcellulose (CMC) 94 % of control

Cc1nc2ccccc2[nH]1
inactive: [6] 109 % of control | [7] 105 % of control | [8] 105 % of control

COc1nc(Cl)cc2c1ncn2C1OC(CO)C(O)C1O (stereo not given)
inactive: dose: 100.0 mg/kg/injection, schedule: Q01DX005 (ip), vehicle: saline 111 % of control | dose: 200.0 mg/kg/injection, schedule: Q01DX005 (ip), vehicle: saline 108 % of control

O=C(NC(=S)N1CC=CCC1)c1ccccc1
inactive: dose: 100.0 mg/kg/injection, schedule: Q04DX002 (ip), vehicle: gum acacia 97 % of control | dose: 200.0 mg/kg/injection, schedule: Q04DX002 (ip), vehicle: gum acacia 100 % of control | dose: 400.0 mg/kg/injection, schedule: Q04DX002 (ip), vehicle: gum acacia 93 % of control

Cc1ccc(NC(=S)NC(=O)COc2ccccc2)cc1C
inactive: dose: 50.0 mg/kg/injection, schedule: Q01DX001 (ip), vehicle: other 92 % of control | dose: 50.0 mg/kg/injection, schedule: Q01DX009 (ip), vehicle: other 96 % of control and 108 % of control | dose: 50.0 mg/kg/injection, schedule: Q04DX002 (ip), vehicle: other 101 % of control and 116 % of control | dose: 50.0 mg/kg/injection, schedule: Q04DX003 (ip), vehicle: other 95 % of control | [1] 97 % of control | dose: 100.0 mg/kg/injection, schedule: Q01DX009 (ip), vehicle: other 100 % of control and 86 % of control | dose: 100.0 mg/kg/injection, schedule: Q04DX003 (ip), vehicle: other 92 % of control | [2] 101 % of control | dose: 200.0 mg/kg/injection, schedule: Q01DX009 (ip), vehicle: other 96 % of control and 90 % of control

Cc1ccc(C(C)C)c2sc(=N)oc12
inactive: dose: 100.0 mg/kg/injection, schedule: Q04DX003 (ip), vehicle: Klucel (hydroxypropylcellulose) (HPC) 104 % of control | dose: 200.0 mg/kg/injection, schedule: Q04DX003 (ip), vehicle: Klucel (hydroxypropylcellulose) (HPC) 103 % of control | dose: 400.0 mg/kg/injection, schedule: Q04DX003 (ip), vehicle: Klucel (hydroxypropylcellulose) (HPC) 98 % of control

C=CCNC(=O)/C=C/C(=O)NCC=C
inactive: dose: 25.0 mg/kg/injection, schedule: Q04DX003 (ip), vehicle: saline with Tween-80 97 % of control | dose: 50.0 mg/kg/injection, schedule: Q04DX003 (ip), vehicle: saline with Tween-80 97 % of control | [9] 89 % of control

NC(=S)N/N=C/c1c(Cl)n(C(=O)c2ccc(Cl)cc2)c2ccccc12
inactive: [7] 91 % of control | [8] 87 % of control | [10] 91 % of control

Cc1cnnn1-c1cccc(C(F)(F)F)c1
inactive: [6] 92 % of control | [7] 92 % of control | [8] 99 % of control and 88 % of control

ClCCN1CCN(CCCN2c3ccccc3CCc3ccccc32)CC1
inactive: dose: 12.5 mg/kg/injection, schedule: Q04DX003 (ip), vehicle: saline 106 % of control | dose: 25.0 mg/kg/injection, schedule: Q04DX003 (ip), vehicle: saline 94 % of control | dose: 50.0 mg/kg/injection, schedule: Q04DX003 (ip), vehicle: saline 114 % of control | [3] 102 % of control and 110 % of control | dose: 150.0 mg/kg/injection, schedule: Q04DX003 (ip), vehicle: saline 93 % of control | dose: 225.0 mg/kg/injection, schedule: Q04DX003 (ip), vehicle: saline 103 % of control | dose: 335.0 mg/kg/injection, schedule: Q04DX003 (ip), vehicle: saline 93 % of control and 109 % of control | [5] 101 % of control

CCCCCCCCCCCCCCCCCC(=O)OC(C(O)C=O)C(O)C(O)CO (stereo not given)
inactive: [8] 95 % of control | [10] 109 % of control | dose: 400.0 mg/kg/injection, schedule: Q04DX002 (ip), vehicle: Klucel (hydroxypropylcellulose) (HPC) 95 % of control

O=C1OC(=O)C2(Br)C3C=CC(C3)C12Br (stereo not given)
inactive: [9] 98 % of control | dose: 200.0 mg/kg/injection, schedule: Q04DX003 (ip), vehicle: saline with Tween-80 96 % of control | dose: 400.0 mg/kg/injection, schedule: Q04DX003 (ip), vehicle: saline with Tween-80 91 % of control
